# Molecular target: T1, rat metabotropic glutamate receptor 5 (mGluR5) (Rattus norvegicus, UniProt P31424)
# T1 construct: expressed in transfected cells; host or cells: HEK 293
# Experiment: Calcium mobilization assay (FLIPR) for negative or positive allosteric activity, HEK 293 cells
# Assay type: cell-based
# Settings: HEK293, negative allosteric modulation, inhibition of EC80 glutamate response; read-out: FLIPR maximum inhibition
# Description: The cDNA for rat metabotropic glutamate receptor 5 (mGluR5) was a generous gift from S. Nakanishi (Kyoto University, Kyoto, Japan). The mGluR5 was stably expressed in a HEK 293 cell line and grown in Dulbecco's Modified Eagle Medium (DMEM) (Invitrogen, Carlsbad, Calif.) with supplements (10% bovine calf serum, 4 mM glutamine, 100 units/mL penicillin, 100 μg/mL streptomycin and 0.75 mM G1418) at 37° C., 5% CO2. Twenty-four hours prior to assay, cells were seeded into 384-well black wall microtiter plates coated with poly-D-lysine. Just prior to assay, media was aspirated and cells dye-loaded (25 μL/well) with 3 μM Fluo-4/0.01% pluronic acid in assay buffer (Hank's Balanced Saline Solution (HBSS)): 150 mM NaCl, 5 mM KCl, 1 mM CaCl2, 1 mM MgCl2, plus 20 mM N-2-Hydroxyethylpiperazine-N′-2-ethanesulfonic acid (HEPES), pH 7.4, 0.1% bovine serum albumin (BSA) and 2.5 mM probenicid) for 1 hour in 5% CO2 at 37° C. After excess dye was discarded, cells were washed in assay buffer and layered with a final volume equal to 30 μL/well. Basal fluorescence is monitored in a fluorometric imaging plate reader (FLIPR) (Molecular Devices, Sunnyvale, Calif.) with an excitation wavelength of 488 nm and an emission range of 500 to 560 nm. Laser excitation energy was adjusted so that basal fluorescence readings were approximately 10,000 relative fluorescent units. Cells were stimulated with an EC20 or an EC80 concentration of glutamate in the presence of a compound to be tested, both diluted in assay buffer, and relative fluorescent units were measured at defined intervals (exposure=0.6 sec) over a 3 min period at room temperature. Basal readings derived from negative controls were subtracted from all samples. Maximum change in fluorescence was calculated for each well. Concentration-response curves derived from the maximum change in fluorescence were analyzed by nonlinear regression (Hill equation). A negative modulator can be identified from these concentration-response curves if a compound produces a concentration dependent inhibition of the EC80 glutamate response. […] Examples 11-163 also were tested in the above assay.
# A positive modulator can be identified from these concentration-response curves if a compound produces a concentration dependent increase in the EC20 glutamate response.
# T1 sequence (P31424 21-1171 isoform P31424-2 limits assumed): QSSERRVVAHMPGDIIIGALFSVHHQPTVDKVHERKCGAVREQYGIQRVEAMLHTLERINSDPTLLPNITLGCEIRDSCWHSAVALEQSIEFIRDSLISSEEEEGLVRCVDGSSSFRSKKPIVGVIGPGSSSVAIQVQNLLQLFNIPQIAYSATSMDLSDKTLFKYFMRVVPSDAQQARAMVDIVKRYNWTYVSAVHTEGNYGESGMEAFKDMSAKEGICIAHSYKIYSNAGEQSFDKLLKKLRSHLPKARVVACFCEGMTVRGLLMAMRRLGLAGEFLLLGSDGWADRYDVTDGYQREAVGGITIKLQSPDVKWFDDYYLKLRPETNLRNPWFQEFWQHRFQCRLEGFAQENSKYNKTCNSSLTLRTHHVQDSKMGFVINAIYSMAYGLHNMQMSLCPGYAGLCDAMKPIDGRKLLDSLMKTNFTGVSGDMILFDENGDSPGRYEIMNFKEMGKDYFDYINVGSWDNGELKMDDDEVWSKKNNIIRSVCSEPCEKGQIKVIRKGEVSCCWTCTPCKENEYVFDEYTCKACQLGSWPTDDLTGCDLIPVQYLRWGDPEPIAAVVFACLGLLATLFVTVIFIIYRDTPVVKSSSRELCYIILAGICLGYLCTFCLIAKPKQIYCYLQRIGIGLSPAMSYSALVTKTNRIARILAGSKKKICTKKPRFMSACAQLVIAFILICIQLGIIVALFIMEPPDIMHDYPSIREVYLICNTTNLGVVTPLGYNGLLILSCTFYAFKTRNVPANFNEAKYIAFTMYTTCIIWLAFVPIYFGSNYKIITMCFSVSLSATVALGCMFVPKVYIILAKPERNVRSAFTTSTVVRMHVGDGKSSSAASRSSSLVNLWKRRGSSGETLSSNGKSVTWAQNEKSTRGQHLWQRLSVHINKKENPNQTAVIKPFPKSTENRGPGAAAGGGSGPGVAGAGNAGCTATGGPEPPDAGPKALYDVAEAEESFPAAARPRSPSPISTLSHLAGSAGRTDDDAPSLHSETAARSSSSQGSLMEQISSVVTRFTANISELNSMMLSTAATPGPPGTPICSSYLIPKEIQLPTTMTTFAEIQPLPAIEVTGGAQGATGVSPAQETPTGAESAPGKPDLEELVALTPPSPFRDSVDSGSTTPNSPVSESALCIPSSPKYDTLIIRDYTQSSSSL
row,SMILES,Emax
1,"O=C(NC12CC3CC(C1)CC(NC(=O)c1cnc4ccccc4n1)(C3)C2)c1cnc2ccccc2n1 [Example 13, N,N′-(1,3-adamantylene)bis(quinoxaline-2-carboxamide)]",63 to 99%
2,"Cc1ccnc(C(=O)NC23CC4CC(C2)CC(NC(=O)c2cccc(C)n2)(C4)C3)c1 [Example 28, 4-Methyl-pyridine-2-carboxylic acid {3-[(6-methyl-pyridine-2-carbonyl)-amino]-adamantan-1-yl}-amide]",63 to 99%
3,"O=C(NC12CC3CC(C1)CC(NC(=O)C1CC1(F)F)(C3)C2)c1ccccn1 (stereo not shown) [Example 83, Pyridine-2-carboxylic acid {3-[(2,2-difluoro-cyclopropanecarbonyl)-amino]-adamantan-1-yl}-amide]",63 to 99%
4,"COc1cccc(C(=O)NC23CC4CC(C2)CC(NC(=O)c2ccccn2)(C4)C3)c1 [Example 80, Pyridine-2-carboxylic acid [3-(3-methoxy-benzoylamino)-adamantan-1-yl]-amide]",63 to 99%
5,"Cc1cccc2nc(C(=O)NC34CC5CC(CC(NC(=O)c6cccc(F)c6)(C5)C3)C4)cn12 [Example 103, 5-Methyl-imidazo[1,2-a]pyridine-2-carboxylic acid [3-(3-fluoro-benzoylamino)-adamantan-1-yl]-amide]",63 to 99%
6,"O=C(NC12CC3CC(C1)CC(NC(=O)c1cccc(Cl)c1)(C3)C2)c1cccc(Cl)c1 [Example 3, N,N′-(1,3-adamantylene)bis(3-chloro-benzamide)]",90 to 99%
7,"Cc1cccc(C(=O)NC23CC4CC(C2)CC(NC(=O)c2nn(C)c5ccccc25)(C4)C3)n1 [Example 37, 1-Methyl-1H-indazole-3-carboxylic acid {3-[(6-methyl-pyridine-2-carbonyl)-amino]-adamantan-1-yl}-amide]",63 to 99%
8,"Cc1cccc(C(=O)NC23CC4CC(C2)CC(NC(=O)c2cccc(C(F)(F)F)n2)(C4)C3)n1 [Example 23, 6-Trifluoromethyl-pyridine-2-carboxylic acid {3-[(6-methyl-pyridine-2-carbonyl)-amino]-adamantan-1-yl}-amide]",63 to 99%
9,"CNC(=O)c1cccc(C(=O)NC23CC4CC(CC(NC(=O)c5ccccn5)(C4)C2)C3)n1 [Example 64, Pyridine-2,6-dicarboxylic acid 2-methylamide 6-({3-[(pyridine-2-carbonyl)-amino]-adamantan-1-yl}-amide)]",63 to 99%
10,"O=C(NC12CC3CC(C1)CC(NC(=O)c1ccncc1)(C3)C2)c1ccncc1 [Example 4, N,N′-(1,3-adamantylene)bis(4-pyridinecarboxamide)]",90 to 99%
11,"O=C(NC12CC3CC(C1)CC(NC(=O)c1ccn4ccnc4c1)(C3)C2)c1cccc(F)c1 [Example 99, Imidazo[1,2-a]pyridine-7-carboxylic acid [3-(3-fluoro-benzoylamino)-adamantan-1-yl]-amide]",63 to 99%
12,"Cc1nc(C(=O)NC23CC4CC(CC(NC(=O)c5ccccn5)(C4)C2)C3)cs1 [Example 110, Pyridine-2-carboxylic acid {3-[(2-methyl-thiazole-4-carbonyl)-amino]-adamantan-1-yl)-amide]",70 to 99%
13,"Cc1cccc(C(=O)NC23CC4CC(CC(NC(=O)c5ccc6occc6c5)(C4)C2)C3)n1 [Example 33, 6-Methyl-pyridine-2-carboxylic acid {3-[(benzofuran-5-carbonyl)-amino]-adamantan-1-yl}-amide]",63 to 99%
14,"Cc1cccc(C(=O)NC23CC4CC(C2)CC(NC(=O)c2ccn(C)n2)(C4)C3)n1 [Example 20, 6-Methyl-pyridine-2-carboxylic acid {3-[(1-methyl-1H-pyrazole-3-carbonyl)-amino]-adamantan-1-yl}-amide]",63 to 99%

# Second part, the compound after the results:
row,Emax,SMILES
1,70 to 99%,"CCOc1cccc(C(=O)NC23CC4CC(C2)CC(NC(=O)c2cncc(C)n2)(C4)C3)c1 [Example 147, 6-Methyl-pyrazine-2-carboxylic acid [3-(3-ethoxy-benzoylamino)-adamantan-1-yl]-amide]"
2,63 to 99%,"COCCCNc1cccc(C(=O)NC23CC4CC(CC(NC(=O)c5ccccn5)(C4)C2)C3)n1 [Example 220, 6-(3-Methoxy-propylamino)-pyridine-2-carboxylic acid {3-[(pyridine-2-carbonyl)-amino]-adamantan-1-yl}-amide]"
3,70 to 99%,"Cc1cncc(C(=O)NC23CC4CC(C2)CC(NC(=O)c2csc(C)n2)(C4)C3)n1 [Example 157, 6-Methyl-pyrazine-2-carboxylic acid {3-[(2-methyl-thiazole-4-carbonyl)-amino]-adamantan-1-yl}-amide]"
4,63 to 99%,"COCCN(C)c1cccc(C(=O)NC23CC4CC(CC(NC(=O)c5ccccn5)(C4)C2)C3)n1 [Example 225, 6-[(2-Methoxy-ethyl)-methyl-amino]-pyridine-2-carboxylic acid {3-[(pyridine-2-carbonyl)-amino]-adamantan-1-yl}-amide]"
5,63 to 99%,"Cc1cccc(C(=O)NC23CC4CC(C2)CC(NC(=O)c2cccc(-n5ccnc5)n2)(C4)C3)n1 [Example 254, 6-Imidazol-1-yl-pyridine-2-carboxylic acid {3-[(6-methyl-pyridine-2-carbonyl)-amino]-adamantan-1-yl}-amide]"
6,70 to 99%,"Cc1cccc(C(=O)NC23CC4CC(C2)CC(NC(=O)c2csc(C)n2)(C4)C3)n1 [Example 136, 6-Methyl-pyridine-2-carboxylic acid {3-[(2-methyl-thiazole-4-carbonyl)-amino]-adamantan-1-yl}-amide]"
7,63 to 99%,"Cc1cccc(C(=O)NC23CC4CC(C2)CC(NC(=O)c2cccc(NCCCN(C)C)n2)(C4)C3)n1 [Example 236, 6-(3-Dimethylamino-propylamino)-pyridine-2-carboxylic acid {3-[(6-methyl-pyridine-2-carbonyl)-amino]-adamantan-1-yl}-amide]"
8,63 to 99%,"Cc1cncc(C(=O)NC23CC4CC(C2)CC(NC(=O)c2ccnc(C)n2)(C4)C3)n1 [Example 173, 2-Methyl-pyrimidine-4-carboxylic acid {3-[(6-methyl-pyrazine-2-carbonyl)-amino]-adamantan-1-yl}-amide]"
9,63 to 99%,"Cc1nc(C(=O)NC23CC4CC(CC(NC(=O)c5cnccn5)(C4)C2)C3)cs1 [Example 187, Pyrazine-2-carboxylic acid {3-[(2-methyl-thiazole-4-carbonyl)-amino]-adamantan-1-yl}-amide]"
10,63 to 99%,"O=C(NC12CC3CC(C1)CC(NC(=O)c1cccc(NCCCO)n1)(C3)C2)c1ccccn1 [Example 203, 6-(3-Hydroxy-propylamino)-pyridine-2-carboxylic acid {3-[(pyridine-2-carbonyl)-amino]-adamantan-1-yl}-amide]"
11,63 to 99%,"Cc1cccc(C(=O)NC23CC4CC(C2)CC(NC(=O)c2cccc(N5CCC[C@@H]5CO)n2)(C4)C3)n1 [Example 238, 6-((R)-2-Hydroxymethyl-pyrrolidin-1-yl)-pyridine-2-carboxylic acid {3-[(6-methyl-pyridine-2-carbonyl)-amino]-adamantan-1-yl}-amide]"
12,63 to 99%,"COCCNc1cccc(C(=O)NC23CC4CC(CC(NC(=O)c5ccccn5)(C4)C2)C3)n1 [Example 224, 6-(2-Methoxy-ethylamino)-pyridine-2-carboxylic acid {3-[(pyridine-2-carbonyl)-amino]-adamantan-1-yl}-amide]"
13,63 to 99%,"Cc1cncc(C(=O)NC23CC4CC(CC(NC(=O)c5ccc6ocnc6c5)(C4)C2)C3)n1 [Example 175, Benzoxazole-5-carboxylic acid {3-[(6-methyl-pyrazine-2-carbonyl)-amino]-adamantan-1-yl}-amide]"
14,63 to 99%,"CN(C)CCCNc1cccc(C(=O)NC23CC4CC(CC(NC(=O)c5ccccn5)(C4)C2)C3)n1 [Example 226, 6-(3-Dimethylamino-propylamino)-pyridine-2-carboxylic acid {3-[(pyridine-2-carbonyl)-amino]-adamantan-1-yl}-amide]"
15,63 to 99%,"CN(C)CCNc1cccc(C(=O)NC23CC4CC(CC(NC(=O)c5cccc(F)c5)(C4)C2)C3)n1 [Example 242, 6-(2-Dimethylamino-ethylamino)-pyridine-2-carboxylic acid [3-(3-fluoro-benzoylamino)-adamantan-1-yl]-amide]"

# Same assay, conditions: positive modulation, increase in EC20 glutamate response
EC50,maximum modulation,SMILES
0.83 µM,120%,"Cc1cncc(C(=O)NC23CC4CC(CC(NC(=O)c5cc(-c6ccccc6)ncn5)(C4)C2)C3)n1 [Example 257, 6-Phenyl-pyrimidine-4-carboxylic acid {3-[(6-methyl-pyrazine-2-carbonyl)-amino]-adamantan-1-yl}-amide]"
